# Reference: paper PMC12102218 (Nature Communications, 2025)
# Target: T1, ENPP1 (Homo sapiens, UniProt P22413)
# T1 sequence (P22413 1-925): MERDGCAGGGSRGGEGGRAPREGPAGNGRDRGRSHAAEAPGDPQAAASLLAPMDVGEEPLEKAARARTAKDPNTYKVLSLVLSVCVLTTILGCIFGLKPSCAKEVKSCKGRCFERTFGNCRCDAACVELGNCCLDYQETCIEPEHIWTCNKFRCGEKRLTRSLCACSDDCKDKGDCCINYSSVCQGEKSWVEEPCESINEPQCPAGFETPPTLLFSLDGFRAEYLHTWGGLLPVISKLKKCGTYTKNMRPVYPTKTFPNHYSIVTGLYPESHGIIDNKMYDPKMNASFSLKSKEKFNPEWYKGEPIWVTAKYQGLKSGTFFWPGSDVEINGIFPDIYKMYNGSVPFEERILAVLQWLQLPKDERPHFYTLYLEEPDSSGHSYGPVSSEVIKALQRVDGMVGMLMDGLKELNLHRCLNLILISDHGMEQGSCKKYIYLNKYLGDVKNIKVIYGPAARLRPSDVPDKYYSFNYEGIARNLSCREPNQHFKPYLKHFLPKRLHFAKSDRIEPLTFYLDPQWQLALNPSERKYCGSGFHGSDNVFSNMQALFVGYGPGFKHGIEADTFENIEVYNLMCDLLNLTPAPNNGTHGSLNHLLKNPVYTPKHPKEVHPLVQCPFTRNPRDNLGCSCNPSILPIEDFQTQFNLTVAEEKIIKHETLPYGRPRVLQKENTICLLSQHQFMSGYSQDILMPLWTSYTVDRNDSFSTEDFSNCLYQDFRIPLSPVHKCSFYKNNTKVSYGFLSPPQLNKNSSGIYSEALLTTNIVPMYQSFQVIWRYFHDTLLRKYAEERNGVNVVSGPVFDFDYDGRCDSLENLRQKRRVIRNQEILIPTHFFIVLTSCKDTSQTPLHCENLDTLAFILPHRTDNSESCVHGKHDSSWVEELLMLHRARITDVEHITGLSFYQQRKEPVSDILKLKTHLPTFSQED
# Experiment: ENPP1 enzymatic assay, cGAMP hydrolysis
# Type: biochemical
substance,measurement,value
QS1,IC50,142 nM
